Reference: patent US5786480A, “4-substituted pyrazoloquinoline derivatives” (Schering Corporation, priority 1996, dated 1998)
≈ marks a conversion by molar mass, not a printed value.

Assays:
[1] = test system: HSV Early Gene Expression; assay: Transient Expression Assay for Effects Against HSV Early Gene Expression (beta Galactosidase Assay, βgal); type: cell-based
Method: (§1) The compound toxicity assay (3H-LEU), Plaque Reduction Assay for HSV Antiviral Activity (Plaque), and Transient Expression Assay for Effects Against HSV Early Gene Expression (β Galactosidase Assay or βgal) were carried out as set forth in U.S. Pat. No. 5,175,151 which is hereby incorporated by reference.

HSV [2] = assay: Plaque Reduction Assay for HSV Antiviral Activity (Plaque); type: cell-based
Method: as §1

[3] = compound toxicity assay (3H-LEU); type: cell-based
Method: as §1

herpes virus [4] = settings: mammals; Haines et al., U.S. Pat. No. 4,757,088; cited from earlier work
HSV-2 = settings: Haines et al., U.S. Pat. No. 4,757,088; cited from earlier work
HSV [5] = settings: humans; Haines et al.; cited from earlier work
herpes virus [6] = settings: addition of panthothenic acid or its alcohol and salt forms, dexpanthenol and pantothenate; Haines et al.; cited from earlier work
HSV-1 = settings: Haines et al., U.S. Pat. No. 4,757,088; cited from earlier work

Compound	IC50 [1] [µg/mL]	IC50 (HSV [2]) [µg/mL]	other results
COc1ccc2nc3c(c(C)nn3C(=O)[C@H](C)N)c(Cl)c2c1 [(32)]	1.8 (≈ 5.65 µM)	0.2 (≈ 0.627 µM)	
CCCCNc1c2cc(C)ccc2nc2[nH]nc(C)c12 [(18)]	3 (≈ 11.2 µM)		CC50 [3]: 21.5 µg/mL (≈ 80.1 µM)
CCN(CC)CC(=O)Nc1c(C)cccc1C [lidocaine, 2-(diethylamino)-N-(2,6-dimethylphenyl)acetamide]			able to treat herpes virus infections (herpes virus [4]): able to treat herpes virus infections of mammals; antiviral agent in cell culture against HSV-2 (HSV-2): antiviral agent in cell culture against HSV-1 and HSV-2; effective in the treatment of HSV oral and genital lesions (HSV [5]): particularly effective; enhancement of antiviral activity (herpes virus [6]): significantly enhances; antiviral agent in cell culture against HSV-1 (HSV-1): antiviral agent in cell culture against HSV-1
COc1ccc2nc3[nH]nc(C)c3c(NCC(=O)O)c2c1 [(27)]	20 (≈ 69.9 µM)		
COc1ccc2nc3[nH]nc(C)c3c(NCCO)c2c1 [(3)]	1.3 (≈ 4.77 µM)	2.3 (≈ 8.45 µM)	CC50 [3]: 8.2 µg/mL (≈ 30.1 µM)
COc1ccc2nc3c(cc2c1)c(C)nn3C(=O)[C@H](C)N [(22)]	0.2 (≈ 0.703 µM)	0.2 (≈ 0.703 µM)	
CNCC(=O)n1nc(C)c2cc3cc(OC)ccc3nc21 [(24)]	0.2 (≈ 0.703 µM)	2 (≈ 7.03 µM)	
CCCCNc1c2cc(OC)cc(C)c2nc2[nH]nc(C)c12 [(19)]	3 (≈ 10.1 µM)		CC50 [3]: 21.5 µg/mL (≈ 72.1 µM)
COc1ccc2nc3[nH]nc(C)c3c(NCC(=O)NCCN3CCCCC3)c2c1 [(29)]	6 (≈ 15.1 µM)	20 (≈ 50.4 µM)	
COc1ccc2nc3[nH]nc(C)c3c(NCCOCCO)c2c1 [(1)]	5 (≈ 15.8 µM)		
COc1ccc2nc3[nH]nc(C)c3c(NCC(=O)NCCN3CCOCC3)c2c1 [(30)]	2 (≈ 5.02 µM)	20 (≈ 50.2 µM)	
COc1ccc2nc3c(cc2c1)c(C)nn3C(=O)[C@@H](N)C(C)C [(21)]	0.2 (≈ 0.64 µM)	20 (≈ 64 µM)	
COc1ccc2nc3[nH]nc(C)c3c(NCCCN(C)C)c2c1 [(20)]	0.8 (≈ 2.55 µM)		
CCC(C)[C@H](N)C(=O)n1nc(C)c2c(Cl)c3cc(OC)ccc3nc21 (some centres unmarked) [(31)]	0.2 (≈ 0.554 µM)	0.8 (≈ 2.22 µM)	
CCCCNc1c2cc(OC)ccc2nc2[nH]nc(C)c12 [(17)]	< 3		CC50 [3]: 3.2 µg/mL (≈ 11.3 µM)
COc1ccc2nc3c(cc2c1)c(C)nn3C(=O)C(C)(C)N [(25)]	0.2 (≈ 0.67 µM)	20 (≈ 67 µM)	
COc1ccc2nc3[nH]nc(C)c3c(NCCN3CCOCC3)c2c1 [(4)]	20 (≈ 58.6 µM)	10 (≈ 29.3 µM)	CC50 [3]: 100 µg/mL (≈ 293 µM)
COc1ccc2nc3[nH]nc(C)c3c(NCCc3ccccn3)c2c1 [(5)]	1 (≈ 3 µM)	7.5 (≈ 22.5 µM)	
COc1ccc2nc3c(c(C)nn3C(=O)[C@@H](C)N)c(Cl)c2c1 [(33)]	0.5 (≈ 1.57 µM)	0.2 (≈ 0.627 µM)	
COc1ccc2nc3[nH]nc(C)c3c(NCC(=O)NCCCN3CCCC3=O)c2c1 [(28)]	2 (≈ 4.87 µM)	20 (≈ 48.7 µM)	
COc1ccc2nc3c(c(C)nn3C(=O)[C@@H](N)C(C)C)c(NCCN3CCOCC3)c2c1 [(23)]	0.2 (≈ 0.454 µM)	20 (≈ 45.4 µM)	
